Values quoted from earlier work, collected in patent US20190124865A1, “APPARATUS AND METHOD FOR INACTIVATING PLANT PATHOGENS WHILE STIMULATING PLANT GROWTH VIA SELECTIVE APPLICATION OF OXYGEN/OZONE GAS MIXTURES, AND CARBON DIOXIDE, IN A MULTI COMPARTMENT SYSTEM” (priority 2017, published 2019).

Tests used:
[1] = gaseous milieu, room temperature
Aeromonas hydrophilia = conditions: ozone 5% per volume admixed with oxygen
coliform bacteria = conditions: ozone 5% per volume admixed with oxygen
staphylococcus aureus = conditions: ozone 5% per volume admixed with oxygen
fungal species = conditions: ozone 5% by volume, given time
plants = conditions: 30% increase in ambient carbon dioxide, in the order of 100 ppm to 150 ppm

Row | SMILES | rate of reversion to pure oxygen [1] | inactivation of Aeromonas hydrophilia (Aeromonas hydrophilia) | inactivation of coliform bacteria (coliform bacteria) | inactivation of staphylococcus aureus (staphylococcus aureus) | effect on fungal species (fungal species) | increase in plant growth (plants) [%]
1 | O=[O+][O-] [Ozone, ozone] | about 50 % per hour | rapidly inactivates | rapidly inactivates | rapidly inactivates | inexorable distress to any and all fungal species, leading to their demise | –
2 | O=C=O [carbon dioxide] | – | – | – | – | – | 30
